Assay results taken from ChEMBL document CHEMBL1201862, “PubChem BioAssay data set” (2004).
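Where inhibition never reached the appropriate level, the endpoint shown equals the highest concentration tested. Otherwise, values were interpolated linearly from a five-concentration, 48-hour dose response in 96-well plates. GI50: concentration for 50% inhibition of growth.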 Calls of active or inactive are those of the source. Cut-off read from the data, not from the text of the source: active = GI50 up to about 1.1 µM and inactive = higher.

Tests used:
Experiment in all cases: NCI tumour cell line growth inhibition, 48 h
[1] = system: MCF7
[2] = system: MOLT-4
[3] = system: T47D
[4] = system: NCI-H522
[5] = system: BT-549
[6] = system: SW-620
[7] = system: M14
[8] = system: NCI-H23
[9] = system: SNB-19
[10] = system: SK-MEL-28
[11] = system: SNB-75
[12] = system: MDA-MB-231
[13] = system: HOP-62
[14] = system: Malme-3M
[15] = system: KM12
[16] = system: COLO 205
[17] = system: HL-60
[18] = system: LOX IMVI
[19] = system: HOP-92
[20] = system: SF-295

Row | SMILES | GI50 [1] | GI50 [2] | GI50 [3] | GI50 [4] | GI50 [5] | GI50 [6] | GI50 [7] | GI50 [8] | GI50 [9] | GI50 [10] | GI50 [11] | GI50 [12] | GI50 [13] | GI50 [14] | GI50 [15] | GI50 [16] | GI50 [17] | GI50 [18] | GI50 [19] | GI50 [20]
1 | NC(=O)CN1CCN(c2nc(N3CCCC3)c3nc(Cl)c(NCc4ccccc4)nc3n2)CC1 | 8.87 µM (inactive) | 7.26 µM (inactive) | 7.89 µM (inactive) | 10.4 µM (inactive) | 10 µM (inactive) | 11.5 µM (inactive) | 9.91 µM (inactive) | 13.7 µM (inactive) | 9.89 µM (inactive) | 9.46 µM (inactive) | 10.7 µM (inactive) | 10.8 µM (inactive) | 0.525 µM (active) | 8.65 µM (inactive) | 10.6 µM (inactive) | 8.75 µM (inactive) | 8.77 µM (inactive) | 9.33 µM (inactive) | 8.36 µM (inactive) | 8.89 µM (inactive)
2 | Fc1ccc(NC(=S)SCc2ccc3c(c2)OCO3)cc1F | 18.7 µM (inactive) | 18.7 µM (inactive) | 10.8 µM (inactive) | 16.8 µM (inactive) | 21.1 µM (inactive) | 33 µM (inactive) | 20.4 µM (inactive) | 20.7 µM (inactive) | 16.6 µM (inactive) | 3.76 µM (inactive) | 20.6 µM (inactive) | 31.1 µM (inactive) | 39.5 µM (inactive) | 24.4 µM (inactive) | 25.5 µM (inactive) | 18.9 µM (inactive) | 16.7 µM (inactive) | 15.3 µM (inactive) | 23.2 µM (inactive) | 18.4 µM (inactive)
3 | CCCCCCCCCCCCCCCCOP(=O)(O)OP(=O)(O)OCC1OC(n2ccc(N)nc2=O)CC1O (stereo not given) | > 100 µM (inactive) | > 100 µM (inactive) | > 100 µM (inactive) | > 100 µM (inactive) | > 100 µM (inactive) | > 100 µM (inactive) | > 100 µM (inactive) | > 100 µM (inactive) | > 100 µM (inactive) | > 100 µM (inactive) | > 100 µM (inactive) | > 100 µM (inactive) | > 100 µM (inactive) | > 100 µM (inactive) | > 100 µM (inactive) | > 100 µM (inactive) | > 100 µM (inactive) | > 100 µM (inactive) | > 100 µM (inactive) | > 100 µM (inactive)
4 | O=S1(=O)CS(=O)(=O)OCCO1 | 51.8 µM (inactive) | 10.4 µM (inactive) | 53.1 µM (inactive) | 48.3 µM (inactive) | 37.8 µM (inactive) | 40.9 µM (inactive) | 47.3 µM (inactive) | 37.8 µM (inactive) | 31.7 µM (inactive) | 69 µM (inactive) | 14 µM (inactive) | 128 µM (inactive) | 12.4 µM (inactive) | 55.1 µM (inactive) | 51.4 µM (inactive) | 46.6 µM (inactive) | 11.2 µM (inactive) | 16.8 µM (inactive) | 31.2 µM (inactive) | 13.2 µM (inactive)
5 | C[C@H]1CCC/C=C/[C@@H]2C[C@H](OC3OC(CO)C(O)C(O)C3O)C[C@H]2[C@H](O)/C=C/C(=O)O1 (stereo not given in full) | 62.4 µM (inactive) | > 100 µM (inactive) | > 100 µM (inactive) | 44 µM (inactive) | > 100 µM (inactive) | 35.9 µM (inactive) | 46.9 µM (inactive) | 53.1 µM (inactive) | > 100 µM (inactive) | 25.1 µM (inactive) | 35 µM (inactive) | 20.4 µM (inactive) | > 100 µM (inactive) | 17.8 µM (inactive) | 31.3 µM (inactive) | 17.2 µM (inactive) | > 100 µM (inactive) | 36.1 µM (inactive) | > 100 µM (inactive) | 77.6 µM (inactive)
6 | O=Cc1ccc(-c2cccs2)s1 | 1.16 µM (inactive) | > 95.1 µM (inactive) | 46.9 µM (inactive) | > 100 µM (inactive) | 51.3 µM (inactive) | 72.4 µM (inactive) | > 100 µM (inactive) | > 68.1 µM (inactive) | > 100 µM (inactive) | > 100 µM (inactive) | 76 µM (inactive) | > 80 µM (inactive) | 67.6 µM (inactive) | > 100 µM (inactive) | > 100 µM (inactive) | 42.3 µM (inactive) | 49.3 µM (inactive) | > 91.8 µM (inactive) | 55.6 µM (inactive) | > 100 µM (inactive)
7 | CCOC(=O)C(NC(=O)c1ccccc1)(Nc1ccc(Cl)cc1C(F)(F)F)C(F)(F)F (stereo not given) | 4.83 µM (inactive) | 2.55 µM (inactive) | 4.39 µM (inactive) | 2.59 µM (inactive) | 6.37 µM (inactive) | 2.88 µM (inactive) | 4.13 µM (inactive) | 4.59 µM (inactive) | 5.48 µM (inactive) | 6.97 µM (inactive) | 2.29 µM (inactive) | 6.31 µM (inactive) | 3.91 µM (inactive) | 3.37 µM (inactive) | 1.42 µM (inactive) | 4.58 µM (inactive) | 1.98 µM (inactive) | 5.33 µM (inactive) | 4.99 µM (inactive) | 4.03 µM (inactive)
8 | CCC1CCC2C3CC=C4CC(OC(C)=O)C(N)CC4(C)C3CCC12C (stereo not given) | 6.41 µM (inactive) | 2.37 µM (inactive) | 5.78 µM (inactive) | 2.51 µM (inactive) | 4.93 µM (inactive) | 3.21 µM (inactive) | 1.82 µM (inactive) | 6 µM (inactive) | 2.51 µM (inactive) | 3.66 µM (inactive) | 1.89 µM (inactive) | 1.95 µM (inactive) | 2.08 µM (inactive) | 3.49 µM (inactive) | 2.96 µM (inactive) | 5.18 µM (inactive) | 2 µM (inactive) | 1.8 µM (inactive) | 5.02 µM (inactive) | 3.26 µM (inactive)
9 | CN1CCN(c2cc3[nH]c(-c4ccc(Cl)cc4)nc3cc2F)CC1 | 7.82 µM (inactive) | 10.9 µM (inactive) | 19.1 µM (inactive) | 15.6 µM (inactive) | 15.8 µM (inactive) | 21.8 µM (inactive) | 2.84 µM (inactive) | 15.8 µM (inactive) | 21.3 µM (inactive) | 8.75 µM (inactive) | 14.7 µM (inactive) | 17.4 µM (inactive) | 16.8 µM (inactive) | 10.5 µM (inactive) | 10.8 µM (inactive) | 18.2 µM (inactive) | > 10 µM (inactive) | 10.5 µM (inactive) | 25.4 µM (inactive) | 15.2 µM (inactive)
10 | CCN1CCC(O)(/C=C/c2ccc(C)cc2C)C(C(=O)/C=C/c2ccc(C)cc2C)C1 (stereo not given) | 2.69 µM (inactive) | 1.28 µM (inactive) | 2.39 µM (inactive) | 1.84 µM (inactive) | 2.79 µM (inactive) | 3.16 µM (inactive) | 3.55 µM (inactive) | 2.77 µM (inactive) | 4.03 µM (inactive) | 4.7 µM (inactive) | 5.79 µM (inactive) | 2.23 µM (inactive) | 2.89 µM (inactive) | 5.82 µM (inactive) | 2.33 µM (inactive) | 1.98 µM (inactive) | 3.35 µM (inactive) | 1.76 µM (inactive) | 1.85 µM (inactive) | 2.08 µM (inactive)
11 | CCN(CC)c1ccc(/C=C2/C[N+](C)(C)C/C(=C/c3ccc(N(CC)CC)cc3)C2=O)cc1 | 1.96 µM (inactive) | 1.51 µM (inactive) | 2.4 µM (inactive) | 2.06 µM (inactive) | 1.61 µM (inactive) | 2.67 µM (inactive) | 2.4 µM (inactive) | 1.69 µM (inactive) | 3.19 µM (inactive) | 1.82 µM (inactive) | 1.62 µM (inactive) | 2.58 µM (inactive) | 5.55 µM (inactive) | 1.95 µM (inactive) | 1.23 µM (inactive) | 1.29 µM (inactive) | 0.365 µM (active) | 1.69 µM (inactive) | 0.813 µM (active) | 11.9 µM (inactive)
